# Measurements from patent US20250213614A1, “Modified RELA Protein for Inducing Interferon Expression and Engineered Immune Cells with Improved Interferon Expression” (Institut Curie, priority 2022, published 2025).
# Test system: CD19+ mKate2+A549 cells
# Assay: CAR-T tumor spheroid killing assay
# Format: cell-based, human
# Experimental: CD19+ mKate2+A549 cells were produced by lentiviral transduction using pCDH-CMV-CD19 puro and ILV-EF1a-mKate-9-X01 (Flash therapeutics) lentivectors. 1,000 cells were plated 4 days prior to co-culture in low-cluster 96 well plates (Costar #7007) and allowed to form spheroids in DMEM 10% FBS 5% PS. Total CD3+ T cells were isolated by negative selection from PBMCs (Stemcell #17951) and stimulated with Dynabeads at a ratio of 1:3 (beads:cell). Cells were cultured at 1 million per ml in X-VIVO 15 with 5% PS, 5% decomplemented human serum (Sigma) and 50 μM 2-mercaptoethanol (GIBCO #31350-010). 24 hours following TCR stimulation 100,000 cells in 100 μl were co-transduced with 100 μl of lentivector viral particles (pTRIP-SFFV-GFP or pTRIP-SFFV-GFPRELAK5R) combined with the CAR lentivirus (rLV.EFA.19BBz, Flash therapeutics) at a multiplicity of infection (MOI) of 10 (corresponding usually to less than 1 μl). Spinoculation was carried out at 1200 g for 2 hours at 25° C. Cells were expanded for 48 hours with fresh media and 300 U/ml IL-2. 3 days following transduction T cells were stained with CD19 CAR detection reagent (miltenyi 130-115-965) for 15 minutes at 4° C., washed twice and subsequently with secondary antibody (invitrogen #S21374) for 30 minutes at 4° C. Cells were fixed and acquired on a FACSVerse (BD). The next day, Dynabeads were removed by magnetic separation and 250, 500 or 1,000 CAR+ cells were added per well of A549 spheroids in quadruplicates. Plates were then placed in an IncuCyteS3 and images were acquired using a 10× objective ([…]/pixel) every 3 hours for 5 to 6 days. Images were analysed using the IncuCyte S3 software. At the end of the culture, supernatants were harvested and assayed for IFN concentrations.
substance,measurement,setting,value
"RELA K5R: RELA mutant converting five lysine residues (K122, K123, K310, K314, K315) to arginine, expressed from lentivector",IFNL1 at the end of co-culture,"6 days co-culture, all dilutions of CART and RELA K5R cells",detected
same,tumor growth with lower numbers of CAR T cells,"FIG. 6F, left panel",delay of tumor growth was also observed
same,tumor spheroid size / elimination of tumor cells,"co-culture 5-6 days, CAR-positive cell numbers normalized, FIG. 6E, 6F",significantly more efficiently eliminated
same,proliferation rates as cause of improved killing capacity,data not shown,not due to increased proliferation rates
